Measurements from patent EP1263420B1 (priority 2000, dated 2001).
Entries after “also recorded” stand apart in the source; their conditions may differ.

Experiments:
Lung Tumorigenesis = experiment: Lung tumorigenesis inhibition by inhaled isotretinoin in carcinogen-treated A/J mice; format: in vivo; settings: for reductions of tumor multiplicity (non-significant): low dose; for reductions in multiplicity of tumor nodules: mid isotretinoin dose
Source text: The A/J mouse is a well-established animal model for preclinical chemoprevention studies. This strain has a hereditary predisposition for lung cancer, the so-called pulmonary adenoma susceptibility (Pas) genes. A strong candidate for one of these genes, Pas-1, is the K-ras protooncogene. Carcinogenesis in this model with NNK as the inciting agent has been studied so that the times required to develop hyperplastic areas, adenomas, and carcinomas are well known. In addition, the timing of molecular changes associated with carcinogenesis has been studied and are similar to those in humans. In both species, K-ras mutations are common early events.
Within 24 h of the last inhalation exposure, animals were euthanized by intraperitoneal injection of pentobarbital and their lungs were removed and fixed in Bouin's solution or flash frozen for RAR determination. The lungs were evaluated in a blinded fashion so that neither carcinogen nor isotretinoin dose levels were known to the evaluator, who visually counted hyperplastic areas and adenomas on the lung pleural surface as previously described The significance of the differences between the mean tumor incidence of the treatment and the control groups was determined using the Mann-Whitney Rank Sum test (Statmost TM, DataMost Corp., Sandy, Utah).

RARs = experiment: RAR induction in lung of A/J mice exposed to isotretinoin aerosols, all three RARs; format: in vivo; settings: lungs exposed to mid levels of isotretinoin, urethane-treated mice
Description: Antibodies: Polyclonal antibodies to RARα, β and γ (Santa Cruz Biotechnology Inc., San Francisco, CA) were used with a BM Chemiluminescence Western Blotting Kit (Mouse/Rabbit) (Boehringer Mannheim Corporation, Indianapolis).
Experimental Design: Five lungs each from the urethane-treated vehicle, low dose, and mid dose animals were snap frozen in liquid nitrogen and stored at -70°C for determination of RARs α, β and γ by Western Blot Analysis. In addition, five lungs each from urethane-injected unexposed mice, and untreated control mice were designated for Westerns. The lungs were homogenized and the RARs were determined by standard Western Blotting (21, 22). Due to deaths early in the high dose experiment, no lungs were available for Western Blot Analysis for the high dose exposures, i.e. all tissue was used for lesion quantitation purposes.
Samples: Lung tissue was collected, frozen on dry ice and kept at -70°C until used. A 500 mg portion was diced in small pieces and homogenized in 300 µl of cold PBS using a hand held homogenizer for 2-3 min. Samples were centrifuged at 500 rpm for 5 min or until the supernatant was clear. The pellet was suspended in 400 µl of cold Buffer A [2 µl 0.5 M EDTA, 10 µl 1 mM EGTA, 50 µl 100 mM PMSF, 10 µl 1M DTT, 10 ml (10 mM HEPES pH 7.9 + 10 mM KCl)], and left at ice temperature for 15 min. […]

CC1=C(/C=C/C(C)=C/C=C/C(C)=C\C(=O)O)C(C)(C)CCC1 [13-cis RA, 13-cis-Retinoic Acid]
reductions of tumor multiplicity (non-significant) (Lung Tumorigenesis; BaP treated mice, p<0.13): 30%
reductions of tumor multiplicity (non-significant) (Lung Tumorigenesis; NNK treated mice, p<0.30): 16%
effect on numbers of tumors (Lung Tumorigenesis; low isotretinoin dose): not affected by treatment at the 95% confidence level; also recorded: not significantly effective
reductions in multiplicity of tumor nodules (Lung Tumorigenesis; BaP-treated mice): 67%
reductions in multiplicity of tumor nodules (Lung Tumorigenesis; NNK-treated mice): 88%
induction of all three RARs (RARs): at least three fold
